# Laboratory results taken from patent US11185530B2, “Composition for preventing or treating hearing loss, containing atorvastatin as active ingredient” (AJOU UNIVERSITY INDUSTRY-ACADEMIC COOPERATION FOUNDATION, priority 2017, dated 2021).
# Assays:
# HEI-OC1 cells [1] = experiment: PI staining and cell morphology analysis of apoptosis; type: cell-based; conditions: HEI-OC1, 24 hours, 200 to 800 μM tested
# Experimental: As a cell experiment model that replaces the diabetic mouse model through a high fat/fructose diet, that is, obesity, a cytotoxicity experiment model based on saturated fatty acid palmitate, which is an intermediate product of lipid synthesis that is excessively abundant during obesity, has been devised. HEI-OC1 (house-ear institute-organ of Corti 1), the auditory cell line conducting the major auditory function, was used, and the diabetes-mediated hearing loss cell line model was treated with palmitate.
# In order to evaluate apoptosis, 24 hours after HEI-OC1 cells, the auditory cell line, were treated with 200 to 800 μM of palmitate, PI (propidium iodide) staining and the cell morphology thereof were analyzed. As a result, cell apoptosis was induced with a change in cell morphology from the palmitate concentration of 200 μM, and this phenomenon became more apparent as the concentration increased (FIG. 4 in part A).
# [2] = test system: auditory cell line (HEI-OC1); experiment: WST-1 assay of cytotoxicity and cell viability; type: cell-based
# Experimental: The effect of palmitate on cytotoxicity and cell viability of the auditory cell line (HEI-OC1) was quantitatively analyzed through a WST-1 assay.
# In order to evaluate the function of atorvastatin against the cytotoxicity of palmitate, atorvastatin was pre-treated at each concentration and palmitate was post-treated at each concentration.
# The cytotoxic and apoptotic effects of palmitate and the cytoprotective effect of atorvastatin were analyzed using a student's T-test for statistical significance through quantification.
# [3] = test system: breast cancer cell xenograft model; conditions: Front. Med. China, 2009; cited from earlier work
# [4] = test system: auditory cell line (HEI-OC1); experiment: DCFDA staining of reactive oxygen species; type: cell-based; conditions: HEI-OC1, palmitate and atorvastatin
# obese C57 mice = conditions: Lipids in Health and Disease, 2014; cited from earlier work
# [5] = test system: cochlea of the diabetic mouse model; experiment: H&E staining and immunohistochemistry (DHE, TUNEL) of cochlea of diabetic mouse model; type: in vivo, C57/BL6J male mice
# Experimental: Damage to cochlear hair cells around the base and middle turn (16 kHz) region, fibrocytes of the lateral wall and spiral ganglion cells of the cochlea of the diabetic mouse model established in Example 1 was evaluated through H & E (hematoxylin and eosin) staining and immunohistochemistry.
# Then, the auditory cells (cochlear hair cells) were observed through immunohistochemistry.
# The spiral ganglion cells were analyzed by H & E staining.
# Stria vascularis cells in the lateral wall in the cochlea (inner ear) were analyzed by H & E staining.
# HEI-OC1 cells [6] = experiment: Western blotting of cleaved caspase-3, PARP and AKT phosphorylation; type: cell-based
# [7] = test system: auditory cell line (HEI-OC1); experiment: TUNEL immunostaining quantified by fluorescence microscopy; type: cell-based; conditions: HEI-OC1, combination of palmitate and atorvastatin
# [8] = test system: auditory cell line (HEI-OC1); experiment: ATP detection luminescence; type: cell-based; conditions: total extract of cells, palmitate plus atorvastatin
# Experimental: In addition, the effects of atorvastatin on the protection of cells and on energy metabolisms were evaluated using ATP detection luminescence.
# [9] = test system: mouse model of age-related hearing loss; conditions: Neuroscience Letters, 2007; cited from earlier work
# [10] = test system: noise-induced hearing loss rat model; conditions: low dose, 5 mg/kg; Int J Occup Environ Med, 2016; cited from earlier work
# diabetic mouse model = experiment: Body weight, blood glucose, glucose tolerance and insulin tolerance in diabetic mouse model; type: in vivo, C57/BL6J male mice; conditions: 12-week diabetic mice, 20 mg/kg i.p. once every 2 days for 5 weeks, vs control group
# Experimental: The diabetes-mediated hearing loss model was fed with 60% high fat/30% fructose water for 12 weeks and bred to induce diabetes. The diabetes model was established by measuring blood glucose levels, and testing glucose tolerance and insulin tolerance once every two weeks for 12 weeks, weighing weekly and conducting food/water intake efficiency tests twice weekly.
# The experimental group was divided into an atorvastatin group (n=15, 20 mg/kg) and a control (vehicle) group (n=15, DMSO+normal saline) and intraperitoneal administration was conducted once every 2 days for 5 weeks. During the drug administration period, body weight and food intake efficiency tests were performed. Hearing tests, blood glucose measurement, and glucose and insulin tolerance tests were performed immediately before the end of the administration period.
# In addition, body weight, blood glucose level, glucose tolerance and insulin tolerance were measured in the experimental group, obtained by administering atorvastatin to the 12-week diabetic mice, and in the control group. […] All statistical significance was analyzed using one-way ANOVA of SPSS program and student's T-tests.
# [11] = atorvastatin-administered diabetic mice
smiles,measurement,setting,value
CCCCCCCCCCCCCCCC(=O)O [palmitate],concentration from which cell apoptosis with change in cell morphology was induced,HEI-OC1 cells [1],≥ 200 μM
same,cytotoxicity (WST-1 cell viability assay),"[2]; 24 hours, palmitate at 100, 200 and 400 μM",20 to 40%
CC(C)c1c(C(=O)Nc2ccccc2)c(-c2ccccc2)c(-c2ccc(F)cc2)n1CC[C@@H](O)C[C@@H](O)CC(=O)O [atorvastatin],tumor growth and metastasis,[3],inhibit tumor growth and metastasis
same,generation of reactive oxygen species (DCFDA),[4],statistically significantly inhibit
same,obesity-induced type 2 diabetes,obese C57 mice,inhibits obesity-induced type 2 diabetes
same,TUNEL expression in spiral ganglion cells,[5]; [11],suppressed
same,apoptosis (TUNEL) of stria vascularis cells,[5]; [11],markedly suppressed
same,enlargement of stria vascularis tissue of the lateral wall (H&E),[5]; [11],not observed
same,reactive oxygen species in cochlear hair cells (DHE immunohistochemistry),[5]; [11],"decreased reactive oxygen species, like normal mice"
same,spiral ganglion cell size and nucleus morphology (H&E),[5]; atorvastatin-administered diabetic mice vs normal group,"larger cell size than that of the normal group, but had no change in nucleus morphology"
same,morphology of cochlear hair cells (H&E),[5]; diabetic mice administered with atorvastatin,no morphological changes
same,phosphorylation of AKT after treatment with atorvastatin,"HEI-OC1 cells [6]; HEI-OC1, by concentration and time",increased
same,AKT protein phosphorylation under palmitate treatment,"HEI-OC1 cells [6]; HEI-OC1, palmitate plus atorvastatin",inhibited the reduction of AKT protein phosphorylation
same,number of TUNEL-stained cells,[7],statistically decreased
same,production of mitochondrial energy (ATP),[8],maintained the production of mitochondrial energy (ATP)
same,hearing loss in age-related hearing loss model,[9],delaying or inhibiting hearing loss
same,hearing loss in noise-induced model,[10],statistically significant effect of inhibiting hearing loss
same,"cytotoxicity, treatment only with atorvastatin","[2]; 250, 500 or 1,000 nM, HEI-OC1",cytotoxicity was not observed
same,palmitate-induced apoptosis (WST-1 cell viability),"[2]; atorvastatin pre-treated, palmitate post-treated, 24 hours",significantly inhibited
same,blood glucose level,diabetic mouse model,significantly improved
same,body weight,diabetic mouse model,reduced
same,glucose tolerance (GTT),diabetic mouse model,significantly improved
same,insulin tolerance (ITT),diabetic mouse model,significantly improved
